According to US20080226596A1, “Therapeutic compositions and methods useful in treating hepatitis” (priority 2006, published 2008):

What was measured:
GSTm8 = experiment: In vitro PTPase assay, GSTm8; type: biochemical; details: 3-4 μg/ml or 10-100 μg/ml
Description: (§1) In vitro PTPase assays were used to determine the effects of levamisole (Sigma), pentamidine (American Pharmaceutical Partners, Inc.), and ketoconazole (Sigma) on recombinant PTPases, following established procedures (Pathak et al., J. Imumol. 167, 3391 (2001); Pathak et al., Leukemia 16, 2285 (2002), Yi et al., J. Immunol. 169, 5978 (2002)) using a synthetic phosphotyrosine peptide or DiFMUP as the substrate as detailed above in section I.A.2.

human peripheral blood = experiment: ELISPOT of cytokine-positive cells in human peripheral blood treated in vitro; type: cell-based; details: comparable conditions
intracellular Flag-PRL-1 = target: T1, intracellular Flag-PRL-1 (Homo sapiens, UniProt Q93096); experiment: Immunocomplex PTPase assay, Flag-PRL-1 NIH3T3 transfectants; type: cell-based, mouse; details: 5 min treatment
T1 construct: expressed in transfected cells; host or cells: NIH3T3 (A51) or WM9 (A61) transfectants, pBabepuro vector
Protocol: (§2) Immunocomplex PTPase assays were performed to assess the effects of sodium stibogluconate on intracellular PTPases. Cells were untreated or treated with sodium stibogluconate for 5 minutes, washed with fresh medium and then lysed in cold lysis buffer (50 mM Tris, pH 7.4; 150 mM NaCl; 1% NP40; 2 mM PMSF; 20, g/ml of Aprotinin). The lysates were incubated with an anti-Flag antibody in immunoprecipitation assays. The immunocomplexes were collected with protein G sepharose beads (Pharmacia) and washed in cold lysis buffer for 4 times. […] 100 µL of malachite green solution (UBI) was added to each reaction prior to measurement of OD660 to quantify the amounts of free phosphate cleaved by the PTPases from the peptide substrate (Pathak et al., J. Imumol. 167, 3391 (2001)). The remaining 10% contents of individual samples were analyzed by SDS-PAGE/Western blotting to quantify the relative amounts of the phosphatase proteins. […]
(§3) The effects of sodium stibogluconate on intracellular PTPases were assessed using NIH3T3 or WM9 transfectants. […]

intracellular Flag-PRL-3 = target: T2, intracellular Flag-PRL-3 (Homo sapiens, UniProt O75365); experiment: Immunocomplex PTPase assay, Flag-PRL-3 NIH3T3 transfectants; type: cell-based, mouse; details: 5 min treatment
T2 construct: expressed in transfected cells; host or cells: NIH3T3 transfectants, pBabepuro vector
Protocol: as §2, §3

U266 cells = experiment: U266 multiple myeloma cell growth, MTT assay; type: cell-based, human; details: day six cultures
Protocol: (§4) For cell proliferation assays, cells were grown in 10% FCS culture medium containing various amounts of IFNs and/or sodium stibogluconate in 96 well plates and cultured at 37° C. for 3 or 6 days as indicated. The numbers of viable cells in proliferation assays were determined by MTT assays as described in Phatak et al., J. Immunol. 167, 3391 (2001).

Jurkat cells = experiment: IFN-gamma secretion by Jurkat cells, ELISA; type: cell-based, human; details: 16 hrs
Protocol: Jurkat cells were cultured in the absence or presence of various amounts of SSG for 16 hours. The cells and culture medium supernatants were separated by centrifugation (1,000 g, 10 min). The amounts of IFN-gamma in the culture medium supernatants were quantified using an ELISA kit (R.D. system, Minneapolis, Minn.) following the manufacturer's protocol.

DR cells = experiment: DR lymphoma cell growth, MTT assay; type: cell-based, human; details: 100 μg/ml, day 6
Protocol: as §4

DS cells = experiment: DS lymphoma cell growth, MTT assay; type: cell-based, human; details: day 3; IFN-alpha 1,000 u/ml
Protocol: as §4

PTP1B = target: T3, PTP1B (Homo sapiens, UniProt P18031); experiment: In vitro PTPase assay, GST/PTP1B; type: biochemical; details: compared with levamisole, pentamidine, ketoconazole
T3 construct: GST; purchased Upstate Biotechnology Inc. (Lake Placid, N.Y.)
Protocol: In vitro PTPase activities were measured using the commercial protein tyrosine phosphatase assay kit (Upstate Biotechnology, Inc. (“UBI”)) following established procedure known to one of skill in the art. This assay measures the in vitro dephosphorylation of a synthetic phosphotyrosine peptide of the sequence Arg-Arg-Leu-Ile-Glu-Asp-Ala-Gle-Tyr-Ala-Ala-Arg-Gly, wherein the tyrosine is phosphorylated (SEQ ID NO: 3). Briefly, 0.01 µg of GST/PTPase fusion proteins was incubated in 50 μL of Tris buffer (10 mM Tris, pH 7.4) containing different concentrations of inhibitors or chemicals (0-1,000 μg/ml) at 22° C. for 10 minutes, followed by addition of 0.2 mM of the phosphotyrosine peptide and incubation at 22° C. for 18 hours. 100 μL of Malachite Green solution was added and incubated for 5 minutes, and the absorbance at 660 nm was measured after 5 minutes.
as §1

SK-N-SH cells = experiment: SK-N-SH neuroblastoma cell growth, MTT assay; type: cell-based, human; details: 100 μg/ml, day 6
Protocol: NIH3T3 (Yi, et al., Blood 85, 87 (1995)), WM9 (Forsberg, et al., Proc. Nat. Acad Sci. USA 90, 393 (1993)), DU145 (Mickey, et al., Cancer Res. 37, 4049 (1977)), LoVo (Drewinko, et al., Cancer Res. 36, 467 (1976)), HEY (Buick, et al., Cancer Res. 45, 3668 (1985)), U251 (Yoshida, et al., Cancer 50, 410 (1982)), A549 (Giard, et al., J. Natl. Cancer Inst. 51, 1417 (1973)) and SK-N-SH (Helson, et al., Cancer Res. 35, 2594 (1975)) cell lines have been described and were cultured in RPMI 1640 supplemented with 10% fetal calf serum (FCS). For measurement of sodium stibogluconate effects on cell growth in vitro, cells were cultured in the absence (−) or presence (+) of various amounts of sodium stibogluconate for 6 days with viable cells quantified by MTT assays (Mosmann, J. Immunol. Methods 65, 55 (1983)). Percentages of growth inhibition by sodium stibogluconate were calculated (.+−.x

T3 sequence (P18031 whole entry, species assumed): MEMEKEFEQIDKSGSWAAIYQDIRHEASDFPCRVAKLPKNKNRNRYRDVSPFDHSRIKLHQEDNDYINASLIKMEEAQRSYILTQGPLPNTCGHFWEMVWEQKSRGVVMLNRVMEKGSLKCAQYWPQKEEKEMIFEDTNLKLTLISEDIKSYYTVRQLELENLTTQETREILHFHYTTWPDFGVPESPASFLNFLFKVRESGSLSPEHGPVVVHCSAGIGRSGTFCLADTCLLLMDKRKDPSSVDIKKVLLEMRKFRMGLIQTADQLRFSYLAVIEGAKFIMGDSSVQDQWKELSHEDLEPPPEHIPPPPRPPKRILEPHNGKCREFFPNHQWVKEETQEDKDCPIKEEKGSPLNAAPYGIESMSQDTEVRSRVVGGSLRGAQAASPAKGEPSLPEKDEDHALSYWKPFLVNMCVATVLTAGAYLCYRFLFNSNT
T1 sequence (Q93096 whole entry): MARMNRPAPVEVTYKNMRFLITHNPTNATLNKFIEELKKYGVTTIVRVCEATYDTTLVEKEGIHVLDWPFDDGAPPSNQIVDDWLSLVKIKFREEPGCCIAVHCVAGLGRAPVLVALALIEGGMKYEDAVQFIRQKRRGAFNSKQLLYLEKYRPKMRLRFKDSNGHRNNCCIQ
T2 sequence (O75365 whole entry): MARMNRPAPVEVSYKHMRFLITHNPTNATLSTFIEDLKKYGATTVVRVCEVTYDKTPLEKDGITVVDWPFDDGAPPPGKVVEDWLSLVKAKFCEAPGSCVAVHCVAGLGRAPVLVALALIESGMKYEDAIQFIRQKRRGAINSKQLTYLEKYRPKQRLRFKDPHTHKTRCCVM

SMILES	inhibitory activity against GSTm8 (GSTm8)	induction of IL-5+ cells (human peripheral blood)	PTPase activity of Flag-PRL-1 immunocomplexes from treated cells (intracellular Flag-PRL-1)	PTPase activity of Flag-PRL-3 immunocomplexes from treated cells (intracellular Flag-PRL-3)	growth inhibition of U266 cells (U266 cells)	IFN-gamma secretion by Jurkat T cells (Jurkat cells)	killing of DR cells (DR cells)	activity against DS cells (DS cells)	inhibition of PTP1B (PTP1B)	killing of SK-N-SH cells (SK-N-SH cells)
CC(=O)N1CCN(c2ccc(OCC3COC(Cn4ccnc4)(c4ccc(Cl)cc4Cl)O3)cc2)CC1 (centres unmarked) [ketoconazole]	no obvious inhibitory activity									
N=C(N)c1ccc(OCCCCCOc2ccc(C(=N)N)cc2)cc1 [pentamidine]	no obvious inhibitory activity									
O.O.O.O.O.O.O.O.O.O=C([O-])[C@@H]1[O][Sb]2([O-])([O][Sb]34([OH])[O][C@H]([C@H](O)CO)[C@H]([O]3)[C@H](C(=O)[O-])[O]4)[O][C@H]([C@H](O)CO)[C@@H]1[O]2.[Na+].[Na+].[Na+] [sodium stibogluconate]		not induced	little PTPase activities	lack of PTPase activity	substantial growth inhibition activity	increased amounts of IFN-gamma	complete or near complete killing	modest activity	only modestly effective	near-complete cell killing
